The text below walks through data of patent US5248696A, “Composition and method for treating tumors” (World Research Institute for Science and Technology, Inc., priority 1991, dated 1993).

Details of the data set: species or system female CD1 mice. The settings on record: mouse, in vivo. Here is the method:
In accordance with the procedure outlined in Canc. Res. 47: 3707-3711, female CD1 mice (obtained from Charles River Laboratories) were inoculated intraperitoneally with 10^6 S 180 cells in 100 microliters of phosphate buffered saline (PBS). Controls received PBS only. Both tumor and control mice were divided into three groups of ten mice per group. Rosin and technical grade abietic acid were each dissolved in ethanol at a concentration of 200 mg/ml which was diluted with 10% newborn calf serum in PBS to a ratio of 1:20 to form respective suspensions. Untreated groups (both tumor and control mice) were inoculated intraperitoneally with 1 ml of vehicle alone while […] and the technical grade abietic acid treated groups (both tumor and control) were intraperitoneally inoculated with 1 ml (10 mg) of the technical grade abietic acid suspension, the doses being administered immediately, and thereafter on the third, sixth and ninth days. Data from animals which expired within two hours of any inoculation (at zero, three, six and nine days) were discarded. […]

With rosin, the adipose tissue deposition result is recorded as “increased deposition of adipose tissue”.
